Active and inactive are the calls of the source. The rule behind the calls is not given here.
Legend:
A-375 [1] = experiment: Cytotoxicity against human A375 cells assessed as cell growth inhibition after 48 hrs by sulforhodamine B assay; assay type: functional, cell-based; details: A-375, 48 h
[2] = Ratio of IC50 for human HCT116/VP35 cells to IC50 for human HCT116 cells after 72 hrs by MTS assay; assay type: functional
HCT-116 [3] = experiment: Induction cell cycle arrest in human HCT116 cells assessed as reduction in accumulation in S phase at 1.6 uM after 12 hrs by propidium iodide-staining based flow cytometry; assay type: functional
HCT-116 [4] = experiment: Induction cell cycle arrest in human HCT116 cells assessed as accumulation in G1 phase at 1.6 uM after 12 hrs by propidium iodide-staining based flow cytometry; assay type: functional
HCT-116 [5] = experiment: Growth inhibition human HCT116 cells after 72 hrs by MTS assay; assay type: functional, cell-based; details: HCT-116, 72 h
[6] = Toxicity in nude BALB/c mouse xenografted with human HCT116 cells assessed as body weight loss at 20 to 30 mg/kg, ip administered twice a week for 3 weeks; assay type: organism-based; details: in vivo, 504 h
HCT-116 [7] = experiment: Antitumor activity against human HCT116 cells xenografted in nude BALB/c mouse assessed as suppression of excised tumor size at 20 mg/kg, ip administered twice a week for 3 weeks relative to control; assay type: functional
HCT-116 [8] = experiment: Induction of cellular senescence in human HCT116 cells assessed as up-regulation of p21 protein expression at 0.1 to 0.4 ug/ml after 48 hrs by Western blot analysis; assay type: functional, cell-based
HCT-116 [9] = experiment: Induction of cellular senescence in human HCT116 cells at 1.32 uM after 48 hrs by SA-beta-gal-staining based assay; assay type: functional, cell-based
[10] = tested on: Panel NCI-60 (60 carcinoma cell lines); experiment: Growth inhibition human NCI60 cells after 48 hrs by sulforhodamine B assay; assay type: functional
HCT-116 [11] = experiment: Induction of apoptosis in human HCT116 cells assessed as necrotic cells at 1.32 uM after 48 hrs by annexin V/propidium iodide-double staining based flow cytometry (reference value: […]); assay type: functional
HeLa [12] = experiment: Antitumor activity against human HeLa cells xenografted in nude BALB/c mouse assessed as tumor growth inhibition at 10 mg/kg, ip administered every other day for 21 days and observed for 6 days before sacrifice relative to control; assay type: functional; details: read-out: TGI
HCT-116 [13] = experiment: Induction of apoptosis in human HCT116 cells assessed as viable cells at 1.32 uM after 48 hrs by annexin V/propidium iodide-double staining based flow cytometry (reference value: 88.3%); assay type: functional; details: HCT-116, 48 h, read-out: Activity
Mus musculus [14] = experiment: Induction of cellular senescence in BALB/c mouse xenografted with human HCT116 cells assessed as up-regulation of p16 protein expression at 10 mg/kg, administered every other day for 3 weeks by immunohistochemical analysis; assay type: functional, organism-based
[15] = Ratio of IC50 for human HCT116/VM46 cells to IC50 for human HCT116 cells after 72 hrs by MTS assay; assay type: functional
A-375 [16] = experiment: Antitumor activity against human A375 cells xenografted in nude BALB/c mouse assessed as suppression of tumor volume at 7.5 mg/kg, ip administered every other day for 23 days relative to control; assay type: functional; details: A-375, ip, 552 h, read-out: TGI
HCT-116 [17] = experiment: Antitumor activity against human HCT116 cells xenografted in nude BALB/c mouse assessed as reduction in volume of growing subcutaneous tumor at 20 to 30 mg/kg, ip administered twice a week for 3 weeks; assay type: functional, organism-based
[18] = Ratio of IC50 for human A2780/TAX cells to IC50 for human A2780 cells after 72 hrs by MTS assay; assay type: functional
Mus musculus [19] = experiment: Effect on p27 protein expression in BALB/c mouse xenografted with human HCT116 cells at 10 mg/kg, administered every other day for 3 weeks by immunohistochemical analysis; assay type: functional, organism-based
HCT-116 [20] = experiment: Antiproliferative activity against human HCT116 cells xenografted in BALB/c mouse at 10 mg/kg, administered every other day for 3 weeks by Ki67-staining based assay; assay type: functional, organism-based
HCT-116 [21] = experiment: Induction of apoptosis in human HCT116 cells assessed as late apoptotic cells at 1.32 uM after 48 hrs by annexin V/propidium iodide-double staining based flow cytometry (reference value: 4.6%); assay type: functional
A-375 [22] = experiment: Antitumor activity against human A375 cells xenografted in nude BALB/c mouse assessed as tumor growth inhibition at 7.5 mg/kg, ip administered every other day for 23 days relative to control; assay type: functional; details: A-375, ip, 552 h, read-out: TGI
HT-29 = experiment: Growth inhibition human HT-29 cells after 72 hrs by MTS assay; assay type: functional, cell-based
HCT-116 [23] = experiment: Induction cell cycle arrest in human HCT116 cells assessed as accumulation in S phase at 1.6 uM after 24 hrs by propidium iodide-staining based flow cytometry; assay type: functional
HCT-116 [24] = experiment: Antitumor activity against human HCT116 cells xenografted in nude BALB/c mouse assessed as suppression of excised tumor size at 30 mg/kg, ip administered twice a week for 3 weeks relative to control; assay type: functional
HCT-116 [25] = experiment: Cytotoxicity against human HCT116 cells assessed as cell growth inhibition after 24 hrs by sulforhodamine B assay; assay type: functional, cell-based; details: HCT-116, 24 h
HCT-116 [26] = experiment: Induction of cellular senescence in human HCT116 cells assessed as up-regulation of p21 protein expression at 1.32 uM after 48 hrs in presence of p21 siRNA by SA-beta-gal-staining based Western blot analysis; assay type: functional, cell-based
A2780 = experiment: Growth inhibition human A2780 cells after 72 hrs by MTS assay; assay type: functional, cell-based; details: A2780, 72 h
HCT-116 [27] = experiment: Antiproliferative activity against human HCT116 cells assessed as inhibition of colony formation at 0.66 to 2.63 uM after 14 days by crystal violet-staining based assay; assay type: functional, cell-based
HCT-116 [28] = experiment: Induction of apoptosis in human HCT116 cells assessed as early apoptotic cells at 1.32 uM after 48 hrs by annexin V/propidium iodide-double staining based flow cytometry (reference value: 4.8%); assay type: functional
HeLa [29] = experiment: Antitumor activity against human HeLa cells xenografted in nude BALB/c mouse assessed as suppression of excised tumor size at 10 mg/kg, ip administered every other day for 21 days and observed for 6 days before sacrifice relative to control; assay type: functional
HCT-116 [30] = experiment: Cytotoxicity against human HCT116 cells assessed as cell growth inhibition after 48 hrs by sulforhodamine B assay; assay type: functional, cell-based; details: HCT-116, 48 h
[31] = Toxicity in BALB/c mouse assessed as mortality at 10 mg/kg, ip dosed daily for 28 days; assay type: organism-based; details: in vivo, 672 h
[32] = Ratio of IC50 for human A2780DDP cells to IC50 for human A2780 cells after 72 hrs by MTS assay; assay type: functional
HCT-116 [33] = experiment: Antitumor activity against human HCT116 cells xenografted in nude BALB/c mouse assessed as tumor growth inhibition at 7.5 mg/kg, ip administered daily for 21 days relative to control; assay type: functional; details: HCT-116, ip, 504 h, read-out: TGI
[34] = Toxicity in nude BALB/c mouse xenografted with human HCT116 cells assessed as body weight loss at 7.5 mg/kg, ip measured on day 10 and 11; assay type: organism-based; details: in vivo
A549 = experiment: Cytotoxicity against human A549 cells assessed as cell growth inhibition after 48 hrs by sulforhodamine B assay; assay type: functional, cell-based; details: A549, 48 h
HCT-116 [35] = experiment: Antitumor activity against human HCT116 cells xenografted in nude BALB/c mouse assessed as tumor growth inhibition at 30 mg/kg, ip administered twice a week for 3 weeks relative to control; assay type: functional; details: HCT-116, ip, 504 h, read-out: TGI
HCT-116 [36] = experiment: Antitumor activity against human HCT116 cells xenografted in nude BALB/c mouse assessed as tumor growth inhibition at 20 mg/kg, ip administered twice a week for 3 weeks relative to control; assay type: functional; details: HCT-116, ip, 504 h, read-out: TGI
Mus musculus [37] = experiment: Induction of cellular senescence in BALB/c mouse xenografted with human HCT116 cells assessed as up-regulation of p21 protein expression at 10 mg/kg, administered every other day for 3 weeks by immunohistochemical analysis; assay type: functional, organism-based

CC(C)=CCC/C(C)=C/[C@H]1OC(=O)C[C@]12C[C@H](O)C=CC2=O
IC50 (A-375 [1]): 1.5 µM | Ratio IC50 [2]: 1.1 | Activity (HCT-116 [3]): inactive | Activity (HCT-116 [4]): Active | IC50 (HCT-116 [5]): 1.52 µM | Activity [6]: 1 g | Activity (HCT-116 [7]): 72.7% | Activity (HCT-116 [8]): Active | Activity (HCT-116 [9]): Active | GI50 [10]: 0.03 to 4.79 µM | Activity (HCT-116 [11]): 2.5% | inhibition in vivo at 10 mg/kg (HeLa [12]): 30% | viability at 1.32 µM (HCT-116 [13]): 88.2% | Activity (Mus musculus [14]): Active | Ratio IC50 [15]: 0.9 | inhibition in vivo at 7.5 mg/kg (A-375 [16]): 20.6% | Activity (HCT-116 [17]): Active | Ratio IC50 [18]: 0.8 | Activity (Mus musculus [19]): inactive | Activity (HCT-116 [20]): Active | Activity (HCT-116 [21]): 4.9% | inhibition in vivo at 7.5 mg/kg (A-375 [22]): 12.8% | growth inhibition (GI) (HT-29): Active | Activity (HCT-116 [23]): inactive | Activity (HCT-116 [24]): 68.7% | IC50 (HCT-116 [25]): 3.67 µM | Activity (HCT-116 [26]): inactive | IC50 (A2780): 1.23 µM | Activity (HCT-116 [27]): Active | Activity (HCT-116 [28]): 4.4% | Activity (HeLa [29]): 31.5% | IC50 (HCT-116 [30]): 2 to 2.61 µM | Activity [31]: Non-Toxic | Ratio IC50 [32]: 1 | inhibition in vivo at 7.5 mg/kg (HCT-116 [33]): 29.9% | Activity [34]: Toxic | IC50 (A549): 2.45 µM | inhibition in vivo at 30 mg/kg (HCT-116 [35]): 72.7% | inhibition in vivo at 20 mg/kg (HCT-116 [36]): 68.7% | Activity (Mus musculus [37]): Active
